Source: US20120251628A1, “COMPOSITIONS AND METHODS FOR TREATMENT OF CANCER” (priority 2011, published 2012)

Legend:
β-tubulin = assay: Western blot of total tubulin protein from HUVECs; assay type: cell-based, Human; conditions: 5, 10, 20 and 50 uM, 24 and 48 hours, higher concentration
Procedure: (§1) To analyze the change in the overall expression of tubulin, the total amount of tubulin protein was kept to identify by western blotting. HUVECs were cultured in F25 culture flasks containing F-12K (Sigma) medium supplemented with 10% FBS and endothelial cell growth supplement (ECGS, E2759, Sigma). After cultivation for 24 hours, the cells were treated with sodium meta arsenite at concentrations of 5 uM, 10 uM, 20 uM and 50 uM. At 24 hours and 48 hours after treatment, the cells were collected and washed with phosphate buffered saline (PBS) solution. The washed cells were reacted with THF solution (50 mM Tris-Hcl, pH 7.5, 100 mM NaCl, 2 mM EDTA, 1% NP-40, protease inhibitor) at 4° C. for 15 minutes and then broken down or destroyed by use of an ultrasonic cell crusher before SDS (0.5%) was added. Protein from the samples was assayed by using a BCA protein kit (Thermo, 23227) before the same amount of protein (3 μg) was mixed with protein sample buffer. […] warmed up in a water bath in boiling water at 100° C. for five minutes. SDS-PAGE was conducted using a 10% polyacrylamide gel. At the end of electrophoresis, the gel was transferred to nitrocellulose membrane in semi-dry method at room temperature at 220 mA for 40 minutes. […]

α-tubulin = assay: Western blot of total tubulin protein from HUVECs; assay type: cell-based, Human; conditions: 5, 10, 20 and 50 uM, 24 and 48 hours, higher concentration
Procedure: as §1

[1] = tested on: CT26 colon carcinoma cells; assay: Observation of necrosis in tumor tissues after treatment (tumor images); assay type: in vivo; conditions: 10 mg/kg intraperitoneal; discolored at 24 hours after injection; BALB/c mice
Procedure: Seven-week-old, female, specific-pathogen-free (BALB/c) white mice (weight: approximately 20 g) purchased from ORIENTBIO Inc. (Seoul Korea) were subcutaneously injected with 2×10^6 of CT26 colon carcinoma cells per mouse. When the tumor size became 3 mm in diameter, the control group was injected with a phosphate buffered saline (PBS) solution with 5% dextrose while the experimental group was intraperitoneally injected with 100 μL of sodium meta arsenite at a concentration of 10 mg/kg with 5% dextrose. After injection, the measurements of the size of tumors (volume=πab^2/6, where a and b are diameters of tumors) by using the caliper once every two days and the images of the tumors were recorded for 15 days. While the discoloration of the tissues of the mice injected without sodium meta arsenite was not observed for a certain period of time, the central part of tumors in the tissues of the white mice injected with sodium meta arsenite became discolored at 24 hours after the injection of sodium meta arsenite. As time went by, it was observed that the tumors became discolored regardless of the injection of sodium meta arsenite.

[2] = tested on: CT26 colon carcinoma cells; assay: Anti-tumor effect in mice bearing subcutaneous CT26 tumors, alone or with irinotecan; assay type: in vivo
Procedure: Female BALBc mice bearing subcutaneous CT26 colon carcinoma cells were injected intraperitoneally with sodium meta arsenite (10/mg/kg body weight) or irinotecan alone, or co-administered weekly for four weeks.

α-tubulin mRNA = assay: RT-PCR of tubulin mRNA from HUVECs; assay type: cell-based, Human; conditions: 5 uM, 10 uM and 20 uM, 24 hours and 48 hours after treatment
Procedure: (§2) To determine whether the level of tubulin gene expression is responsible for the change in amount of tubulin protein observed in Example 5, RT-PCR was performed. HUVECs (obtained from ATCC) were cultivated in F25 culture flasks containing F-12K (Sigma) medium supplemented with 10% FBS and endothelial cell growth supplement (ECGS, E2759, Sigma). After cultivation for 24 hours, the cells were treated with sodium meta arsenite at concentrations of 5 uM, 10 uM and 20 uM. […] Total RNA was extracted using Trizol (Invitrogen, USA) and alcohol precipitation. 1 ug of total RNA was used for reverse transcriptase and dT was used for cDNA synthesis. The primer for synthesized cDNA and α-tubulin (sense: 5′-ATTGTGCCTTCATGGTAGAC-3′ (SEQ ID NO. 1), antisense: 5′-TTCTGTCAGGTCAACATTCA-3′) (SEQ ID NO. 2), the primer for β-tubulin (sense: 5′-AACGACCTCGTCTCTGAGTA-3′ (SEQ ID NO. 3), antisense: 5′-AATTCTGAGGGAGAGGAAAG-3′) (SEQ ID NO. 4) and GAPDH primer set (sense: 5′-ACCACTTTGTCAAGCTCATT-3′ (SEQ ID NO. 5), antisense: 5′-AGTGAGGGTCTCTCTCTTCC-3′) (SEQ ID No. 6) were used for denaturation at 95° C. for four minutes. After the reactions at 23 cycles at 95° C. for 30 seconds, at 52° C. for 30 seconds and at 72° C. for 40 seconds, PCR was performed at 72° C. for four minutes. The PCR product was confirmed by 1.5% agarose gel electrophoresis.

β-tubulin mRNA = assay: RT-PCR of tubulin mRNA from HUVECs; assay type: cell-based, Human; conditions: 5 uM, 10 uM and 20 uM, 24 hours and 48 hours after treatment
Procedure: as §2

For `O=[As][O-].[Na+]` [sodium meta arsenite], the “protein level of β-tubulin” value (β-tubulin) was “reduced the protein level”, the “protein level of α-tubulin” value (α-tubulin) was “reduced the protein level” and the “discoloration of the central part of tumors due to necrosis” value [1] was “the tissues in the central part became discolored due to necrosis”. The tumor growth delay ([2]; sodium meta arsenite administered 24 hours or 72 hours after irinotecan, weekly for four weeks) was “Significant tumor growth delay”, the tumor regrowth ([2]; sodium meta arsenite alone, 10 mg/kg intraperitoneal) was “regrowth was observed from the periphery after two days” and the “necrosis of the tumor” value ([2]; sodium meta arsenite alone, 10 mg/kg intraperitoneal, by 24 hours after treatment) was “Massive necrosis in the central part of the tumor”. For the same molecule, the “α-tubulin mRNA levels” value (α-tubulin mRNA) was “no change” and the “β-tubulin mRNA level” value (β-tubulin mRNA) was “no change”.
